Results as given in publication PMC11980376, “Lactate dehydrogenase is the Achilles’ heel of Lyme disease bacterium Borreliella burgdorferi” (mBio, 2025).

Tests used:
[1] = test system: telomerase immortalized gingival keratinocytes (TIGKs); experiment: Cell viability, crystal violet assay, 72 h; assay type: cell-based, human
Description: (§1) Immortalized cervical carcinoma cells (HeLa) and TIGKs were purchased from ATCC. HeLa cells were cultured and maintained in Dulbecco’s Modified Eagle Medium with high glucose and supplemented with 10% FBS and 100 µg/mL of penicillin and streptomycin. TIGK cells were cultured in a serum-free keratinocyte growth medium (KGM; Lifeline Cell Technology, MD) as described previously ([56]). Cells were incubated at 37°C, 5% CO2 incubator.
(§2) To determine the toxicity of LDH inhibitors on eukaryotic cells, HeLa and TIGK cells were seeded onto a 96-well plate at 10^4 cells per well the day before drug treatment. Cell culture media were removed the next day and replaced with culture media containing the specified concentration of DMSO, gossypol, 45923, or 350085. Mock-treated wells were included for cell viability normalization purposes. Cells were incubated with inhibitors for 72 h. To determine the cell viability, the crystal violet assay was used as described ([57]). Briefly, cell culture media were decanted from the 96-well plate and washed once with water. A volume of 50 µL of 0.5% crystal violet staining solution (0.5 g crystal violet powder, 80 mL ddH2O, 20 mL methanol) were incubated for 20 min at room temperature (RT) with gentle shaking. Plates were washed 4–5 times by soaking in ddH2O followed by gentle tapping to remove any remaining liquid. Plates were air-dried at RT. A 200 µL of methanol was added to each well. The resulting plates were incubated for 20 min at RT with gentle shaking followed by optical density measurement at 570 nm (OD570) using a Varioskan LUX multimode microplate reader (Thermo Fisher Scientific). The OD570 of mock cells was set to 100% and the percentage of viable cells treated with inhibitors was determined by comparing the average OD570 values of treated wells to mock wells. The experiment was performed in triplicate wells with two technical replicates and two biological replicates. Two-way analysis of variance was used for statistical analysis with significant values of P < 0.05.

HeLa cells = experiment: Cell viability, crystal violet assay, 72 h; assay type: cell-based, human
Description: as §1, §2

BbLDH [2] = biological target: T1, BbLDH (Borreliella burgdorferi, UniProt O51114); experiment: Enzyme kinetics of inhibition with varying pyruvate as substrate, 0–100 µM inhibitor; assay type: biochemical; conditions: for type of inhibition for pyruvate substrate (Lineweaver–Burk plots): Fig. S7
T1 construct: we expressed and purified a full-length N-terminal His- and FLAG-tagged BB_0087 recombinant protein (rBB_0087); 10xHis (N); FLAG (N); made in house; host or cells: E. coli Rosetta-gami 2 (DE3)
Description: The inhibitory effect of gossypol and the four lead inhibitors of BbLDH was performed using 0–100 µM of inhibitors or an equal volume of DMSO vehicle in 50 mM Tris-HCl buffer (pH 7.0) containing 100 ng of BbLDH, 0.5 mM NADH, 2.4 mM pyruvate, and 3 mM FBP at 37°C. All experiments were repeated at least twice. The amount of NADH produced or consumed was extrapolated from the NADH standard curve and plotted in GraphPad Prism 10 (GraphPad Software, La Jolla, CA, USA) using Allosteric Sigmoidal mode to obtain the Vmax and Km values. Lineweaver–Burk plots were generated using the mean reciprocal values of substrates and velocities obtained from the inhibition studies.

BbLDH [3] = biological target: T1, BbLDH; experiment: Small compound library screening (Natural Products Set IV) for inhibition of BbLDH activity; assay type: biochemical; conditions: Extended Data Fig. 7A
Description: To identify potential novel LDH inhibitors against BbLDH, the Natural Products Set IV library containing 419 natural compounds selected from the DTP Open Repository collection was obtained from the National Cancer Institute (NCI). All compounds were dissolved in DMSO to a working stock solution of 10 mM. Primary screening was performed using a label-free HTS protocol ([54]) in 384-well plates. Buffer B (20 mM Tris pH 7.4, 0.005% Triton X-100, 0.005% BGG, 2 mM DTT) containing 10 nM BbLDH, 75 µM pyruvate, and 50 µM NADH was dispensed into each well containing pre-dispensed inhibitors to a final concentration of 10 µM in 50 µL working volume per well. Fluorescence was measured using an excitation wavelength of 340 nm and an emission wavelength of 482 nm. Readings were recorded every second over a total duration of 5 min. Gossypol and DMSO were included as positive and negative controls, respectively. Fluorescent signals were plotted over time for each compound and analyzed using linear regression to determine the slope of reduction compared to DMSO and gossypol. Twenty-three compounds with a reduced slope in comparison to DMSO were selected for a second round of screening.
For the secondary screening, a lactate dehydrogenase activity assay kit (Sigma Aldrich) was used to determine the inhibitory effect of selected small compounds on BbLDH activity. Reactions were performed following the manufacturer’s protocol using 10 and 25 µM of small compounds and 10 nM BbLDH per well. Gossypol and DMSO were included as positive and negative controls, respectively. Compounds that reduced the LDH activity of BbLDH compared to DMSO treatment wells were selected for further analysis.

B. burgdorferi = experiment: In vitro growth analysis of wild-type B. burgdorferi with inhibitors, Petroff-Hausser counting; assay type: cell-based, Borreliella burgdorferi; conditions: 0–300 µM tested, BSK-II medium, 34°C
Description: To measure the growth of the WT B31 A3-68 and 87^mut, 87^mut was first cultivated in the presence of 1 mM IPTG until the stationary phase along with the WT. Cells were harvested via centrifugation and washed with PBS to remove all traces of IPTG. A concentration of 1 × 10^5 cells/mL of WT or 87^mut were inoculated into 10 mL of fresh BSK-II and incubated at 34°C with or without 1 mM IPTG. Bacterial cells were enumerated daily until the cells entered the stationary growth phase (~1 × 10^8 cells/mL) using a Petroff-Hausser counting chamber, as previously described ([100]). At the end of the growth study, cultures were harvested for immunoblot analysis to detect the expression of BbLDH. Growth analyses were repeated in triplicates, and the results were expressed as the means ± standard errors of the means (SEM). To determine the growth inhibition of LDH inhibitors on B. burgdorferi, 10^5 cells/mL of stationary WT cultures were inoculated into a fresh 5 mL BSK-II medium containing the specified concentration of inhibitors. Equal volumes of DMSO were included as negative controls to rule out the inhibitory effect of DMSO on the growth of B. burgdorferi. Cells were maintained at 34°C with a 3.4% CO2 incubator, and cell numbers were enumerated every 2 days until the cells reached the stationary growth phase using the Petroff-Hausser counting chamber.

BbLDH [4] = biological target: T1, BbLDH; experiment: Enzyme kinetics of inhibition, lactate to pyruvate reaction, NADH read at OD340; assay type: biochemical; conditions: Fig. 1F
Description: The enzyme kinetics of BbLDH, with substrates pyruvate or lactate, was monitored by the reduction or oxidation of NADH at OD340 as previously described ([92]) using a Varioskan LUX multimode microplate reader (Thermo Fisher Scientific, Rockford, IL) with minor modifications. Briefly, the conversion of pyruvate to lactate activity was performed at 37°C in 50 mM Tris-HCl buffer pH 7.0 containing 100 ng of BbLDH, 0.5 mM NADH, 2.4 mM pyruvate and with/without 3 mM FBP. The conversion of lactate to pyruvate activity was measured at 37°C in sodium bicarbonate buffer (pH 7.0) containing 100 ng of BbLDH, 1 mM NAD^+, 0–300 mM sodium L-lactate, with/without 3 mM FBP. The kinetic parameters of BbLDH were determined using 0–6.0 mM pyruvate, 0–1.0 mM NADH, 0–2.0 mM NAD^+, 50 mM Tris-HCl buffer, pH 5.0–10.0, or reaction temperature of 25°C, 30°C, and 37°C. All reactions were performed in 96-well plates with a final volume of 200 µL per well.
All experiments were repeated at least twice. The amount of NADH produced or consumed was extrapolated from the NADH standard curve and plotted in GraphPad Prism 10 (GraphPad Software, La Jolla, CA, USA) using Allosteric Sigmoidal mode to obtain the Vmax and Km values. Lineweaver–Burk plots were generated using the mean reciprocal values of substrates and velocities obtained from the inhibition studies.

BB_0087 (BbLDH) = biological target: T2, BB_0087 (BbLDH) (Borreliella burgdorferi, UniProt O51114); experiment: Lactate dehydrogenase activity assay kit, NADH generation from lactate by recombinant BB_0087; assay type: biochemical; conditions: 100 µM gossypol; 50 ng purified recombinant protein
T2 construct: we expressed and purified a full-length N-terminal His- and FLAG-tagged BB_0087 recombinant protein (rBB_0087); 10xHis (N); FLAG (N); made in house; host or cells: E. coli Rosetta-gami 2 (DE3)
Description: To establish the LDH activity of BbLDH, we first used a commercial lactate dehydrogenase activity assay kit (Sigma Aldrich, St. Louis, MO) to measure the ability of BbLDH to reduce NAD to NADH following the manufacturer’s instruction. Commercial LDH inhibitor gossypol (catalog # G8761, Sigma Aldrich) was dissolved in DMSO at a stock concentration of 100 mM. A concentration of 1 µg/µL of recombinant wild-type or H178A BbLDH stocks was diluted 1:20 in the LDH assay buffer to a final working volume of 400 µL per well. A 100 µM of gossypol or DMSO was added to selected wild-type BbLDH wells to determine the inhibitory effect of gossypol on BbLDH activity. Reactions were set up in triplicate wells along with NADH standards. The LDH activity was calculated using the formulation provided by the manufacturer.

T1 sequence (O51114 whole entry): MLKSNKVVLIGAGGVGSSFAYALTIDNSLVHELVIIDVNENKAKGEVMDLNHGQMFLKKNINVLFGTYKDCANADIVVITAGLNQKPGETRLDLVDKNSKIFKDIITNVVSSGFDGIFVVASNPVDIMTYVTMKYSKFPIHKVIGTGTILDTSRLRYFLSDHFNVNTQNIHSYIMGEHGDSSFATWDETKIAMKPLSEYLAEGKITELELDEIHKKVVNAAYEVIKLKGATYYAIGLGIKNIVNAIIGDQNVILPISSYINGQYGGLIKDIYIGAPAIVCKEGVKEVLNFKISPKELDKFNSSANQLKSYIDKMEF
T2 sequence (O51114 whole entry): as above

For `COc1ccc2c(c1)O[C@H]1c3ccc(O)cc3OC[C@@H]21` (stereo in doubt) [compound 350085, Medicarpin], the “concentration at which toxicity to TIGKs begins” value ([1]; crystal violet, non-cancerous cell line) was 20 µM, the “concentration at which growth inhibition of HeLa cells begins” value (HeLa cells) was 5 µM and the Ki (BbLDH [2]) was 205 µM. The “type of inhibition for pyruvate substrate (Lineweaver–Burk plots)” value (“type of inhibition” below) (BbLDH [2]) was “competitive inhibitors” and the “reduction in LDH activity (hit cutoff)” value (BbLDH [3]) was no less than 75%.

`CCC(C)(O)C(=O)OC1C(=O)OC2CC3C(C)=CC(O)C(O)C3(C)C3C4(O)OCC23C1C(C)C4O` (stereo not drawn) [compound 14975] was tested, and the Ki (BbLDH [2]) was 66 µM and the “type of inhibition” value (BbLDH [2]) was “competitive inhibitors”.

For `COc1c2occc2cc2ccc(=O)oc12` [compound 45923, Methoxsalen], the “concentration at which toxicity to TIGKs begins” value ([1]; human) was greater than 50 µM, the “concentration at which growth inhibition of HeLa cells begins” value (HeLa cells) was 10 µM and the “type of inhibition” value (BbLDH [2]) was “competitive inhibitors”. The Ki (BbLDH [2]; varying pyruvate as substrate, 0.5 mM NADH, 3 mM FBP, pH 7.0, 37°C, Fig. 5, read-out: Ki) was 54 µM, the “reduction in LDH activity (hit cutoff)” value (BbLDH [3]) was no less than 75% and the “concentration at which inhibitory effect on growth was observed” value (B. burgdorferi) was 100 µM.

`CCC(C)c1occ2c(O)c(C(=O)O)c(=O)cc-2c1C` (stereo not drawn) [compound 114344] was tested, and the Ki (BbLDH [2]) was 349 µM, the “type of inhibition” value (BbLDH [2]) was “competitive inhibitors” and the “reduction in LDH activity (hit cutoff)” value (BbLDH [3]) was no less than 75%.

`Cc1cc2c(C(C)C)c(O)c(O)c(C=O)c2c(O)c1-c1c(C)cc2c(C(C)C)c(O)c(O)c(C=O)c2c1O` [gossypol] was tested, and the Ki (BbLDH [4]) was 13 µM, the Ki (BbLDH [2]) was 36 µM and the “type of inhibition” value (BbLDH [2]) was “uncompetitive inhibition”. For the same molecule, the “concentration at which inhibitory effect on growth was observed” value (B. burgdorferi) was 100 µM and the “LDH activity of BB_0087 (NADH generated from lactate) upon treatment” value (BB_0087 (BbLDH)) was “completely abolished”.
